Laboratory results from PubChem BioAssay (NCI).
Where “and” joins values, the source holds several entries; their conditions need not be identical. Equal entries are not always repeated.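 Briefly, cells in 96-well plates were exposed to five compound concentrations for 48 h, and endpoints were estimated by linear interpolation. Abbreviation: GI50, concentration required for 50% inhibition of growth. TGI: total growth inhibition.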

Key:
Assay in all cases: NCI tumour cell line growth inhibition, 48 h; in the data active = GI50 below about 0.43 µM; inactive = the rest
DU-145 prostate = system: DU-145 prostate
NCI-H23 lung = system: NCI-H23 lung
OVCAR-8 ovarian = system: OVCAR-8 ovarian
OVCAR-4 ovarian = system: OVCAR-4 ovarian
KM12 colon = system: KM12 colon
SK-MEL-5 melanoma = system: SK-MEL-5 melanoma
MDA-N = system: MDA-N
CCRF-CEM leukemia = system: CCRF-CEM leukemia
A549 NSCLC = system: A549 NSCLC
MDA-MB-231 breast = system: MDA-MB-231 breast

O=C1C(N2CCN(CCOCCO)CC2)=C(Cl)C(=O)c2ncccc21
42.5 µM: TGI (NCI-H23 lung)
34.2 µM: TGI (MDA-MB-231 breast)
34.8 µM: TGI (OVCAR-4 ovarian)
inactive: GI50 (KM12 colon) > 100 µM | GI50 (MDA-N) 19.4 µM | GI50 (CCRF-CEM leukemia) 13.5 µM | GI50 (A549 NSCLC) > 100 µM
30.6 µM: TGI (SK-MEL-5 melanoma)
> 100 µM: TGI (DU-145 prostate) | TGI (KM12 colon) | TGI (A549 NSCLC)
4.44 µM and 35.9 µM: TGI (CCRF-CEM leukemia)
3.76 µM and 35 µM: TGI (MDA-N)
39.4 µM: TGI (OVCAR-8 ovarian)

CCOc1ccc2nc3nc(=O)[nH]c(C)c3c(NC(C)(CO)CO)c2c1
> 100 µM: TGI (DU-145 prostate) | TGI (NCI-H23 lung) | TGI (OVCAR-8 ovarian) | TGI (OVCAR-4 ovarian) | TGI (KM12 colon) | TGI (SK-MEL-5 melanoma) | TGI (MDA-N) | TGI (CCRF-CEM leukemia) | TGI (A549 NSCLC) | TGI (MDA-MB-231 breast)

CSc1nnc(SCc2nn3c(=O)cc(C)nc3s2)s1
> 100 µM: TGI (DU-145 prostate) | TGI (NCI-H23 lung) | TGI (OVCAR-8 ovarian) | TGI (OVCAR-4 ovarian) | TGI (KM12 colon) | TGI (SK-MEL-5 melanoma) | TGI (MDA-N) | TGI (CCRF-CEM leukemia) | TGI (A549 NSCLC) | TGI (MDA-MB-231 breast)

CC(=O)/C=C/c1ccccc1
85.5 µM: TGI (NCI-H23 lung)
97.9 µM: TGI (KM12 colon)
91.9 µM: TGI (MDA-N)
61.2 µM: TGI (SK-MEL-5 melanoma)
72.9 µM: TGI (OVCAR-8 ovarian)
> 100 µM: TGI (DU-145 prostate) | TGI (OVCAR-4 ovarian) | TGI (CCRF-CEM leukemia) | TGI (A549 NSCLC) | TGI (MDA-MB-231 breast)

c1cc2cc3c4c5c(cc6ccc7cc8cc9c%10c8c8c7c6c5c8c5c%10c(c1C9N1CCOCCOCCOCCOCCOCC1)c2c45)C3 (centres undefined)
> 100 µM: TGI (DU-145 prostate) | TGI (NCI-H23 lung) | TGI (OVCAR-8 ovarian) | TGI (OVCAR-4 ovarian) | TGI (KM12 colon) | TGI (SK-MEL-5 melanoma) | TGI (MDA-N) | TGI (CCRF-CEM leukemia) | TGI (A549 NSCLC) | TGI (MDA-MB-231 breast)

O=C1C=C(N2CCN(c3ncccn3)CC2)C(=O)c2c(O)ccc(O)c21
31.3 µM: TGI (MDA-N)
> 100 µM: TGI (DU-145 prostate) | TGI (NCI-H23 lung) | TGI (OVCAR-8 ovarian) | TGI (OVCAR-4 ovarian) | TGI (KM12 colon) | TGI (SK-MEL-5 melanoma) | TGI (CCRF-CEM leukemia) | TGI (A549 NSCLC) | TGI (MDA-MB-231 breast)

COc1ccc(-n2c(N)c(C#N)c(C#N)c2-c2ccco2)cc1
> 100 µM: TGI (DU-145 prostate) | TGI (NCI-H23 lung) | TGI (OVCAR-8 ovarian) | TGI (OVCAR-4 ovarian) | TGI (KM12 colon) | TGI (SK-MEL-5 melanoma) | TGI (MDA-N) | TGI (CCRF-CEM leukemia) | TGI (A549 NSCLC) | TGI (MDA-MB-231 breast)

COc1ccc(/C=c2\[nH]c3nc(=O)c(N4CCCCC4)c(N)n3c2=O)cc1
> 100 µM: TGI (DU-145 prostate) | TGI (NCI-H23 lung) | TGI (OVCAR-8 ovarian) | TGI (OVCAR-4 ovarian) | TGI (KM12 colon) | TGI (SK-MEL-5 melanoma) | TGI (MDA-N) | TGI (CCRF-CEM leukemia) | TGI (A549 NSCLC) | TGI (MDA-MB-231 breast)

Cc1nc(C)c(N2CCN(CN)CC2)c(=O)[nH]1
> 100 µM: TGI (DU-145 prostate) | TGI (NCI-H23 lung) | TGI (OVCAR-8 ovarian) | TGI (OVCAR-4 ovarian) | TGI (KM12 colon) | TGI (SK-MEL-5 melanoma) | TGI (MDA-N) | TGI (CCRF-CEM leukemia) | TGI (A549 NSCLC) | TGI (MDA-MB-231 breast)

COC(=O)[C@@H](NS(=O)(=O)CC12CCC(CC1)C2(C)C)C(C)(C)C
> 100 µM: TGI (DU-145 prostate) | TGI (NCI-H23 lung) | TGI (OVCAR-8 ovarian) | TGI (OVCAR-4 ovarian) | TGI (KM12 colon) | TGI (SK-MEL-5 melanoma) | TGI (MDA-N) | TGI (CCRF-CEM leukemia) | TGI (A549 NSCLC) | TGI (MDA-MB-231 breast)

COC(=O)/C=C\n1nc(Br)c(=O)[nH]c1=O
> 100 µM: TGI (DU-145 prostate) | TGI (NCI-H23 lung) | TGI (OVCAR-8 ovarian) | TGI (OVCAR-4 ovarian) | TGI (KM12 colon) | TGI (SK-MEL-5 melanoma) | TGI (MDA-N) | TGI (CCRF-CEM leukemia) | TGI (A549 NSCLC) | TGI (MDA-MB-231 breast)

COC(=O)C1C(=O)CC(C)(O)C(C(=O)OC)C1c1ccc(N(C)C)cc1 (centres undefined)
> 100 µM: TGI (DU-145 prostate) | TGI (NCI-H23 lung) | TGI (OVCAR-8 ovarian) | TGI (OVCAR-4 ovarian) | TGI (KM12 colon) | TGI (SK-MEL-5 melanoma) | TGI (MDA-N) | TGI (CCRF-CEM leukemia) | TGI (A549 NSCLC) | TGI (MDA-MB-231 breast)

CC(c1ccccc1)n1cncc1C(=O)NN1CCN(C)CC1 (centres undefined)
> 10 µM: TGI (DU-145 prostate) | TGI (NCI-H23 lung) | TGI (OVCAR-8 ovarian) | TGI (OVCAR-4 ovarian) | TGI (KM12 colon) | TGI (SK-MEL-5 melanoma) | TGI (MDA-N) | TGI (CCRF-CEM leukemia) | TGI (A549 NSCLC) | TGI (MDA-MB-231 breast)

COc1cccc(NC(=O)CC(=O)n2nc(-c3ccccc3)c(N=Nc3ccc(Cl)cc3)c2-c2ccccc2)c1
53.8 µM: TGI (SK-MEL-5 melanoma)
> 81.9 µM: TGI (KM12 colon)
> 39.6 µM: TGI (CCRF-CEM leukemia)
> 78.1 µM: TGI (NCI-H23 lung)
> 85.7 µM: TGI (A549 NSCLC)
> 100 µM: TGI (DU-145 prostate) | TGI (OVCAR-4 ovarian) | TGI (MDA-N) | TGI (MDA-MB-231 breast)
68.3 µM: TGI (OVCAR-8 ovarian)

O=C1C=CC(=O)c2c1ccc1c3ccccc3n(Cc3ccccc3)c21
43.1 µM: TGI (MDA-MB-231 breast)
> 90 µM: TGI (SK-MEL-5 melanoma)
18.1 µM: TGI (OVCAR-4 ovarian)
54.4 µM: TGI (MDA-N)
10.9 µM: TGI (CCRF-CEM leukemia)
42.7 µM: TGI (NCI-H23 lung)
> 100 µM: TGI (DU-145 prostate) | TGI (OVCAR-8 ovarian) | TGI (KM12 colon) | TGI (A549 NSCLC)

Cn1c2ccc(Cl)cc2c2ccc3c(c21)C(=O)C=CC3=O
> 10 µM: TGI (DU-145 prostate) | TGI (NCI-H23 lung) | TGI (OVCAR-8 ovarian) | TGI (OVCAR-4 ovarian) | TGI (KM12 colon) | TGI (SK-MEL-5 melanoma) | TGI (MDA-N) | TGI (CCRF-CEM leukemia) | TGI (A549 NSCLC) | TGI (MDA-MB-231 breast)

CC/C=C/c1cc2c(cc1O)CCC1C2CC[C@@]2(C)C1CC[C@@H]2O (some centres undefined)
14.6 µM: TGI (DU-145 prostate)
15 µM: TGI (KM12 colon)
20 µM: TGI (A549 NSCLC)
20.3 µM: TGI (OVCAR-8 ovarian)
18.1 µM: TGI (MDA-MB-231 breast)
35.3 µM: TGI (OVCAR-4 ovarian)
20.2 µM: TGI (NCI-H23 lung)
11.3 µM: TGI (SK-MEL-5 melanoma)
14.8 µM: TGI (CCRF-CEM leukemia)
0.637 µM: TGI (MDA-N)
